The source of these data is patent US20080076772A1, “Anti-Inflammatory Agents” (Pharma Mar S.A. Sociedad Unipersonal, priority 2004, published 2008).

In one assay the test system is T lymphocytes. Kind of assay: Cell viability of purified T lymphocytes (PI staining, flow cytometry). The class given is cell-based, human. Particulars: 48 h. How it is done: (§1) Purified populations of human blood monocytes were prepared as previously described by differential density centrifugation on Ficoll and Percoll gradients (see Allavena, P., Piemonti, L., Longoni, D., Bernasconi, S., Stoppacciaro, A., Ruco, L., and Mantovani, A. IL-10 prevents the differentiation of monocytes to dendritic cells but promotes their maturation to macrophages. Eur J Immunol, 28: 359-369, 1998). […] Human thymocytes were isolated from resected thymus from pediatric patients undergoing surgery. Thymocytes were obtained by teasing and isolated on Percoll gradient.
(§2) Cell viability was analyzed by DNA content in Flow Cytometry
(§3) Cells exposed to treatments were fixed with ethanol 70%, washed in PBS and stained with propidium iodide (PI) solution containing 10 ug/ml PI in PBS and 25 μl RNAse 10,000 units, overnight in the dark. PI incorporation was evaluated on at least 20,000 cells/sample using a FACS Calibur instrument (Becton Dickinson, Sunnyvale, Calif., USA), with a bandpass filter at 620 nm. Apoptosis was detected by staining with AnnexinV and PI. FACS analysis was performed using a bandpass filter 530 and 620 nm for green (AnnexinV) and red (PI) fluorescence respectively, in combination with a […] dichroic mirror.
(§4) Purified preparations of blood monocytes, lymphocytes and thymocytes were cultured with different concentrations of ecteinascidin 743 for 48 h. […]
Background: Flow cytometry measures light scatter and fluorescence of single cells or particles in a stream.

The subject of a further assay is thymocytes. Briefly: Cell viability of freshly isolated thymocytes (PI staining, flow cytometry). Particulars: Homo sapiens, Thymocyte, 48 h. It is filed as cell-based. As for the experimental part: as §1, §2, §3, §4
The test system of assay [1] is Tumour-Associated Macrophages (TAM). Kind of assay: Cell viability of Tumour-Associated Macrophages from ovarian cancer ascites. Particulars: Homo sapiens, Macrophage; 10 nM, 48 h, three patients. The class given is cell-based. An excerpt: Tumour-associated macrophages (TAM) and tumour cells were isolated from the ascitic fluid of patients with diagnosed ovarian adenocarcinoma, admitted to the Clinic of Obstetrics and Gynecology of the University of Milan-Bicocca, S Gerardo Hospital. Cells contained in the ascitic fluid were centrifuged and isolated by differential density gradients of Ficoll and Percoll, and plastic adherence as previously described (see Allavena, P., Peccatori, F., Maggioni, D., Erroi, A., Sironi, M., Colombo, N., Lissoni, A., Galazka, A., Meiers, W., Mangioni, C., et al. Intraperitoneal recombinant gamma-interferon in patients with recurrent ascitic ovarian carcinoma: modulation of cytotoxicity and cytokine production in tumour-associated effectors and of major histocompatibility antigen expression on tumour cells. Cancer Res, 50: 7318-7323, 1990). Purity of TAM and tumour cell preparations was usually>65±10% as defined by morphology and phenotype analysis. Cells were treated with ecteinascidin 743 at the indicated concentrations and cultured for 1-5 days, as specified in figure legends. At the end of the incubation period cells were collected, washed and used for DNA analysis or functional assays.
Apoptosis was detected by staining with AnnexinV and PI.
We also tested Tumour-Associated Macrophages (TAM) isolated from the ascites of non-treated ovarian adenocarcinoma patients. […]

Assay [2] concerns IL-6. Briefly: IL-6 production by LPS-stimulated monocytes (ELISA). Particulars: Homo sapiens, Monocyte; 5 nM, n=2; read-out: overall inhibition of IL-6 production, monocytes. It is filed as cell-based. How it is done:
(§5) Supernatants of untreated cells or cells treated with ecteinascidin 743 or other anti-neoplastic agents were collected after 24 h culture and frozen. Monocytes, macrophages and TAM were stimulated with 100 ng/ml LPS to induce maximal cytokine production. Determination of cytokines CCL2, TNF and IL-6 was measured by specific ELISA following the manufacturer's instructions.
(§6) Monocytes and in vitro differentiated macrophages were stimulated with LPS (100 ng/ml). After 1 h LPS stimulation they were treated with ecteinascidin 743. After 16 h incubation, cell supernatants were harvested and tested in ELISA. Under these treatment conditions cell viability was usually >85% for concentrations up to 5 nM. […] Mean inhibition at 5 nM, for monocytes, was 65% (range 50-80%, n=5) and was 50% (range 25-75%, n=5) for in vitro differentiated macrophages. Results are mean+/−SE of 3-5 experiments
(§7) We also tested two other cytokines, IL-6 and TNF, produced by macrophages and tumour cells, which have inflammatory properties and also act as growth factors for some tumours. IL-6 production was always reduced after ecteinascidin 743 treatment, with an overall inhibition at 5 nM of 54% (range 51-57%, n=2) and 69% (range 66-72%, n=2), in monocytes and macrophages, respectively (FIG. 6B). […]

Assay [3] concerns IL-6. Kind of assay: IL-6 production by LPS-stimulated in vitro differentiated macrophages (ELISA). It is filed as cell-based. Particulars: Homo sapiens, Macrophage; 5 nM, n=2; read-out: overall inhibition of IL-6 production, macrophages. As for the experimental part:
as §5, §6, §7
A general note: ELISA stands for enzyme-linked immunosorbent assay.

Assay [4] concerns TNF. Briefly: TNF production by LPS-stimulated in vitro differentiated macrophages (ELISA). The class given is cell-based, human. Particulars: LPS 100 ng/ml, 16 h incubation. How it is done: (§8) Monocytes, macrophages and TAM were stimulated with 100 ng/ml LPS to induce maximal cytokine production. Determination of cytokines CCL2, TNF and IL-6 was measured by specific ELISA following the manufacturer's instructions.
(§9) To verify whether the inhibitory effect of ecteinascidin 743 on cytokine production was at the transcriptional level, we analyzed mRNA of CCL2 and TNF from LPS-stimulated macrophages by real time-PCR of CCL2 and TNF transcripts in LPS-stimulated monocytes exposed to ecteinascidin 743.

The test system of assay [5] is TNF. Briefly: TNF production by LPS-stimulated TAM (ELISA). It is filed as cell-based, human. The conditions noted are these: LPS 100 ng/ml, 16 h incubation, up to 10 nM. How it is done: as §8, §9
For a further assay, the system named is CCL2 transcripts. Briefly: Real time-PCR of CCL2 transcripts in LPS-stimulated monocytes. The class given is cell-based, human.
Description: as §9

The subject of a further assay is TNF mRNA. Briefly: Real time-PCR of TNF transcripts in LPS-stimulated monocytes. The class given is cell-based, human.
Description: as §9

The test system of the next assay is CCL2. Kind of assay: CCL2 production induced by exposure of monocytes to tumor cell supernatants. The conditions noted are these: Homo sapiens, Monocyte; for inhibition at 0.0025 µM: 2.5 nM; for inhibition at 0.005 µM: 5 nM. It is filed as cell-based, human. As for the experimental part: We also tested five other ecteinascidin compounds (Table 2) for their capacity to inhibit the production of CCL2 by human monocytes in vitro. […] The extent of inhibition of ET637 Derivative A was even more pronouced compared to ET743. In Table 2 is shown that the production of CCL2, induced by exposure of monocytes to tumor cell supernatants, is inhibited up to 80% and 97% at 2.5 and 5 nM, respectively, in two different donors. In the same experiment ET743 inhibited between 30% and 70%.

Setting [6] is: read-out: % inhibition of CCL2 production, Donor A.
Setting [7] is: read-out: % inhibition of CCL2 production, Donor B.

Where two headings read alike, the source gives them in different places.

As usually defined, the IC50 is the concentration needed to halve the response being measured. What is called mortality is the share of the test organisms that died. Usually inhibition stands for the share of the control response that was lost under treatment. As to `COc1cc2c(cc1O)CCN[C@]21CS[C@@H]2c3c(OC(C)=O)c(C)c4c(c3[C@H](COC1=O)N1[C@@H]2[C@H]2c3c(cc(C)c(OC)c3O)C[C@@H]([C@@H]1O)N2C)OCO4` [ecteinascidin 743], the “viability of T lymphocytes” value in the assay with T lymphocytes (5 nM) is given as “all alive”. Moreover, the IC50 is 20 nM with T lymphocytes (Homo sapiens, T-lymphocyte) and over 40 nM in the assay on thymocytes. Further, in assay [1], the mortality at 0.01 µM is 40 to 70%. The inhibition at 0.005 µM was 54% with IL-6 [2], 69% with IL-6 [3], 70% with CCL2 (setting [6]) and 70% in the assay with CCL2 (setting [7]). The “production of TNF by macrophages” value in the assay with TNF [4] is “never inhibited”. The “production of TNF by TAM” value in the assay with TNF [5] was “never inhibited”. In the assay on CCL2 transcripts, the CCL2 transcripts entry was “consistent reduction”. Besides, the “TNF mRNA” value in the assay with TNF mRNA was “unaffected”. Moreover, the inhibition at 0.0025 µM in the assay on CCL2 (setting [6]) stood at 30%; with CCL2 (setting [7]) it was 60%.
